This note sets out measurements from a melting point compilation (Tetko et al.; mined from patent text by program, amines drawn as free bases though some values may be those of a salt).

With `Nc1ccc(CC(NC(=O)C(c2ccccc2)c2ccccc2)c2ccccc2)cc1` (configuration not stated), the melting point was in the range of 161 to 163 °C. Take `COC(=O)C1=C(C)NC(C)=C(C(=O)OC)C1C`: the melting point is 155 to 156 °C. For `CC(=O)c1ccc(-c2cnco2)cc1`, the melting point was in the range of 128 to 130 °C.

Compound `Cc1cncc(C)c1-c1c(C)cc(C=Cc2ccc(C(C#N)C#N)cc2)cc1C` yielded a melting point of 58 to 60 °C. For the compound `COC(=O)C(CCSC)NCC(=O)Nc1cccc2c1C(=O)c1c(NC(=O)CNC(CCSC)C(=O)OC)cccc1C2=O` (configuration not stated), the melting point is 126 to 127 °C. For `CCCc1c(OCCCCCCCOc2ccc(C(=O)c3cccc(C(=O)O)c3)cc2CCC(=O)O)ccc2c1OCCC2=O`, the melting point was 152 to 153 °C. The figure for `OC(CNC1=NCCN1)c1cccc(Cl)c1` (configuration not stated) is 108 °C; for `CC(c1ccc(-c2ccccc2)c(F)c1)c1nc(CN2CCOCC2)no1` (configuration not stated) it is 91.5 to 92.5 °C. In turn, `CC(C)n1nc(-c2nc(N)c(C(N)=O)nc2-c2ccccc2)ccc1=O` gave a melting point of 217 to 220 °C. `N#CC1CC(C#N)(c2ccc(OC(F)F)c(OCC3CC3)c2)CCC1=O` (configuration not stated) returned a melting point of 142 to 143 °C. The result for `COc1ccc(N2CCN(C(=O)c3cn4cc(Cl)ccc4n3)CC2)cc1` reads 180 to 181 °C; that for `COCOc1cc(C(F)(F)F)ccc1-c1cc(Oc2ccc3cccnc3c2)ncn1`, 98.8 to 99.4 °C. `Oc1c(CN2CCCC2)cc(Nc2ccnc3cc(Cl)ccc23)cc1CN1CCCC1` returned a melting point of 92 °C. The result for `O=c1n(CCCF)nnn1-c1ccc(OCc2ccc(F)cc2)cc1F` reads 86 to 88 °C.

In turn, `COc1ccc(-n2cnc3cc(N)ccc32)cc1` returned a melting point of 44 to 45 °C. In turn, `CCC(Sc1ccc(CCC(=O)O)c(C)c1)c1ccc2nc(-c3ccc(C(F)(F)F)cc3)sc2c1` (configuration not stated) yielded a melting point of 105 to 108 °C. `COC(=O)C1=C(C)Nc2ccccc2SC1c1ccccc1` (configuration not stated): the melting point fell in the range of 154 to 156 °C. As to `COc1ccc2c(c1)CC(C(=O)O)O2` (racemic), the melting point is 98 to 100 °C.

`COCc1cc(OC)c(C=O)c(OC)c1` had a melting point of 72 to 76 °C. As for `COc1ccc(C2=NC(C)(C)CO2)cc1N`, the melting point lay within 108 to 110 °C. As to `CCOC=CC(=O)Nc1cccc(C(=O)OC)c1`, the melting point fell in the range of 108 to 110 °C. As to `COC(=O)c1c(S(=O)(=O)NC(=O)Nc2nc(C)nc(OC)n2)c(C)nn1C`, the melting point lay within 195 to 198 °C.

Turning to `CCOC(=O)C1C(=O)N(CC)c2cc3c(cc21)OCC3` (configuration not stated), the melting point was 82 to 84 °C.

As for `COc1cc(C(=O)c2ccccc2F)ccc1OCc1ccccc1`, the melting point was in the range of 118 to 120 °C. The compound `O=C(O)c1cc2ccccc2c(=O)o1` came in with a melting point of 241 to 242 °C. The figure for `Cc1cc2c(nc1C(O)c1cccc(Cl)c1)CCCCC2` (configuration not stated) is 123 to 125 °C. As for `CNc1nnc(-c2ccc3ncn(-c4ccc(SC)cc4)c3c2)o1`, the melting point was in the range of 224 to 225 °C. `Cc1ncncc1C(=O)Nc1ccc(-n2nc(C(F)(F)F)cc2C2CC2)c(F)c1`: the melting point lay in the range of 101 to 103 °C. As to `CCOc1nn(-c2ccc(C(F)(F)F)cn2)cc1CCOc1cc(CCC(=O)O)n(-c2ccccc2)n1`, the melting point lay within 155 to 156 °C. On to `CCOC(=O)/C=C\C=C(c1ccccc1)c1ccccc1`, for which the melting point fell in the range of 34 to 35 °C.

Compound `O=C(Nc1ccc(-n2nc(C3CC3)cc2C2CC2)c(F)c1)c1c(F)cccc1F` showed a melting point of 182 to 186 °C. `Cc1cc(-c2ccc(S(C)(=O)=O)cc2)n(-c2ccc(-c3ccoc3)cc2)c1` came in with a melting point of 154 to 156 °C.

As to `CCCN(CCC)C1Cc2cc3c(=O)[nH]n(Cc4ccccc4)c(=O)c3cc2C1` (configuration not stated), the melting point lay within 219 to 220 °C. The result for `COc1ccc(-c2cc(=O)c3c(O)cc(OCC4=COC(C)(C)O4)cc3o2)cc1OC(=O)C(C)(C)C` reads 204 to 205 °C; that for `CCCn1c(=O)c2[nH]c(C3CC4COCC4C3)nc2n(CCC)c1=O` (configuration not stated), 226 to 230 °C. In turn, `CCCc1nc(S(=O)(=O)N(c2c(Cl)cccc2Cl)S(=O)(=O)c2nc(CCC)n(-c3ccccc3)n2)nn1-c1ccccc1` came in with a melting point of 262 to 264 °C. The compound `CC(C)C(NC(=O)Cn1cccc(NC(=O)CCc2ccccc2)c1=O)C(=O)C(F)(F)F` (configuration not stated) yielded a melting point of 154 to 155 °C. `O=C(O)c1cc(NC(=O)C(CS)Cc2cccnc2)cs1` (configuration not stated) gave a melting point of 115 to 118 °C. Consider `CCCCCCn1ccc(=O)c(OCc2ccccc2)c1C`, for which the melting point turned out to be 46 °C. The compound `COc1ccc2ccc(N3C(=O)c4ccccc4C3OCC(=O)NC3CCCCC3)nc2n1` (configuration not stated) displayed a melting point of 175 °C. With `O=C(c1ccc(F)cc1)N1CCC[C@H](c2noc(Cc3ccccc3)n2)C1`, the melting point stood at 75 °C. `CC[C@H](O)C(=O)N1CCC(Oc2cc3ncnc(Nc4cccc(Cl)c4F)c3cc2OC)CC1` yielded a melting point of 152 to 153 °C.

Take `CCCC(O)(C=Cc1ccccc1)CC(=O)OC` (configuration not stated): the melting point worked out at 43 °C. Regarding `CCNc1nc(Nc2ccccc2)ncc1C=O`, the melting point lay within 155 to 157 °C. Compound `O=C(O)CN1C(=O)COc2cc(F)c([N+](=O)[O-])cc21` gave a melting point of 177 to 183 °C. As for `COc1ccc(N2C[C@@H](COS(C)(=O)=O)OC2=O)cc1`, the melting point lay in the range of 234 to 236 °C. In turn, `COc1c(N2CCC(N)C2)c(F)cc2c(=O)c(C(=O)O)cn(C3CC3)c12` (configuration not stated) came in with a melting point of 208 to 212 °C. In turn, `Cc1ccc(OC(=O)N2CC3CC(CN(CC(O)COc4ccc(C#N)cc4)C3)C2)cc1` (configuration not stated) showed a melting point of 125 to 126 °C.

Regarding `COc1cc(CCCCC2OC(=O)NC2=O)ccc1OCc1coc(/C=C/c2ccc3ccccc3c2)n1` (configuration not stated), the melting point was in the range of 169 to 170 °C. On to `CSc1ccc(-c2c(C)n[nH]c(=O)c2-c2ncc(Cl)cc2Cl)nc1`, for which the melting point is 229 °C. In turn, `O=[N+]([O-])c1ccccc1NCc1cc(Cl)cc(Cl)c1` returned a melting point of 138 to 140 °C. `C=CCOc1cc(-c2nn3c(c2Cl)CCCC3)c(F)cc1Cl` registered a melting point of 91 to 92 °C.

`O=C(c1ccc2nonc2c1)N1Cc2cccnc2Nc2ccccc21` yielded a melting point of 193 to 194 °C. For `CCCNC1=NS(=O)(=O)c2sc(C)cc2N1`, the melting point was 263 to 264 °C. The figure for `Cc1ccc2ccc(Cn3c(=S)sc4ccccc43)c(O)c2n1` is 211 to 215 °C.

Take `CC(=O)Nc1ccc(-c2cc(C(=O)c3ccc(Cl)cc3Cl)sc2N2CCOCC2)cc1`: the melting point turned out to be 145 °C.

With `OCc1cnoc1-c1ccc(F)c(Cl)c1`, the melting point is 106 to 107 °C.

With `CCCCCCCOc1c(C)cc2[nH]c(S(=O)Cc3ncc(C)c(OC)c3C)nc2c1C` (configuration not stated), the melting point is 116 °C.

The compound `COc1ccc(N(C)c2nc(N)nc3[nH]c4ccccc4c23)cc1` registered a melting point of 234 °C. The figure for `OC12CCCCOC1C(OCc1ccccc1)C(OCc1ccccc1)C(OCc1ccccc1)C2OCc1ccccc1` (configuration not stated) is 106 °C; for `COc1cccc(CC(=O)O)c1OCCCc1cc(OC(C)C)nn1Cc1ccc(C(F)(F)F)cc1Cl` it is 98 to 99 °C; for `COc1ccc(OC)c(-c2cn(N)c(N)n2)c1` it is 159 to 160 °C.

A word on the melting point: it is the temperature, or range, at which the solid turns liquid.
